# Where no end group is shown, it is not given here.
# Key:
# [1] = system: human buccal epithelial cell line TR146; assay: In vitro scratch wound closure assay on an epithelial monolayer; assay type: cell-based
# Procedure: The human buccal epithelial cell line TR146 (Rupniak et al; J Natl Cancer Inst. 1985 October: 75(4):621-35) was kindly provided by Cancer Research UK. Cells were grown in Dulbecco's modified Eagle medium with 4.5 g/l glucose (Invitrogen), 10% FCS (HyClone) and 100 U/ml penicillin, […] streptomycin, and 250 ng/ml amphotericinB (Antibiotic antimyotic solution, Sigma,), at 37° C., 95% humidity and 5% CO2. Cells were maintained until near confluence and then briefly treated with 0.25% trypsin-EDTA 1× (Invitrogen) to detach them, counted in a hepacytometer and seeded into new flasks or multi-well plates at the required cell density of about 1.5×10^5 cells/well. Wound assays were performed as previously described ([…] et al., 1993, J Cell Sci. 106 (Pt 3):869-78). In brief, cells were grown in 12-well plates until confluence, and then were serum deprived for 24 hours in keratinocyte serum free medium (SFM (Invitrogen)). In each well a scratch was made in the cellular monolayer using a sterile tip. The wounded monolayer was washed with SFM to remove cellular debris, and the following conditions were applied: • (i) Whole saliva and salivary secretions applied in 30% (v/v) in SFM. As a negative control 30% (v/v) saliva buffer was used. • (ii) (ii) rhEGF (Invitrogen) as a positive control • (iii) rp-HPLC fractions containing salivary proteins; • (iv) synthetic peptides: the experiments with isolated proteins and synthetic peptides were performed in full SFM. The width of the wound area was determined microscopically immediately after wound creation and at approximately 16 hours after wounding. The relative closure was calculated by relating the closure to that of the negative control.
# [2] = system: human buccal epithelial cell line TR146; assay: In vitro wound closure with inhibitors of EGFR, p38 MAPK and ERK1/2; assay type: cell-based
# Procedure: Wound assays were performed as previously described (Matthay et al., 1993, J Cell Sci. 106 (Pt 3):869-78). In brief, cells were grown in 12-well plates until confluence, and then were serum deprived for 24 hours in keratinocyte serum free medium (SFM (Invitrogen)). In each well a scratch was made in the cellular monolayer using a sterile tip. The wounded monolayer was washed with SFM to remove cellular debris, and the following conditions were applied: • (i) Whole saliva and salivary secretions applied in 30% (v/v) in SFM. As a negative control 30% (v/v) saliva buffer was used. • (ii) (ii) rhEGF (Invitrogen) as a positive control • (iii) rp-HPLC fractions containing salivary proteins; • (iv) synthetic peptides: the experiments with isolated proteins and synthetic peptides were performed in full SFM.
# For inhibitor studies; directly after wounding cells were exposed to inhibitors of ERK1/2 (U0126, 5 μM, LC Laboratories), EGFR (AG1478, 1 μM, Calbiochem), and p38 MAPK (SB203580, 5 μM; LC Laboratories). Experiments were done in quadruplicate and analyzed using One-way ANOVA to determine significance with additional LSD post hoc test, P<0.05 was considered significant.
compound,measurement,setting,value
CC(C)C[C@H](NC(=O)[C@H](Cc1ccc(O)cc1)NC(=O)[C@H](CC(N)=O)NC(=O)[C@H](CO)NC(=O)[C@H](CCCNC(=N)N)NC(=O)[C@H](Cc1ccc(O)cc1)NC(=O)CNC(=O)[C@H](CCCNC(=N)N)NC(=O)[C@H](Cc1c[nH]cn1)NC(=O)[C@H](CO)NC(=O)[C@H](Cc1c[nH]cn1)NC(=O)[C@H](Cc1c[nH]cn1)NC(=O)[C@H](CCCCN)NC(=O)[C@H](CCC(=O)O)NC(=O)[C@H](Cc1c[nH]cn1)NC(=O)[C@H](Cc1ccccc1)NC(=O)[C@H](CCCCN)NC(=O)[C@H](CCCNC(=N)N)NC(=O)[C@H](CCCCN)NC(=O)[C@H](Cc1ccc(O)cc1)NC(=O)CNC(=O)[C@H](Cc1c[nH]cn1)NC(=O)[C@H](Cc1c[nH]cn1)NC(=O)[C@H](CCCNC(=N)N)NC(=O)[C@H](CCCCN)NC(=O)[C@H](C)NC(=O)[C@H](Cc1c[nH]cn1)NC(=O)[C@H](CO)NC(=O)[C@@H](N)CC(=O)O)C(=O)N[C@@H](Cc1ccc(O)cc1)C(=O)N[C@@H](CC(=O)O)C(=O)N[C@@H](CC(N)=O)C(=O)O [Histatin 3],induction of wound closure (in words),"[1]; synthesized peptides in SFM, vs control",induce wound closure
"C-HST1: cyclic peptide having the amino acid sequence according to SEQ. ID. NO. 4, Histatin 1 (DSHEKRHHGYRRKFHEKHHSHREFPFYGDYGSNYLYDN; ends and bridges not checked; also: cyclic, mode of cyclisation not given here)",relative wound closure,"[1]; concentration of 1*10-3 μM, FIG. 4, 1 = no peptide added",1.5
"EGF: epidermal growth factor, rhEGF (Invitrogen), used as a positive control",induced wound closure with EGFR blocked,[2]; AG1478 1 μM,abolished the effect
same,pathway dependence of induced wound closure,"[2]; SB203580 5 μM (p38 MAPK), U0126 5 μM (ERK1/2), FIG. 2",p38^MAPK dependent
same,induction of wound closure by EGF,"[1]; 5 ng/ml, FIG. 1D",able to induce wound closure with rates comparable to that of parotid saliva
same,Wound closure rel. clos. ± SD,"[1]; TR146 monolayer, approx. 16 hours after wounding, closure relative to negative control, peptides tested at 1-50 μg/ml",1.41 ± 0.12
